According to paper PMC8286840, “Identifying SARS-CoV-2 antiviral compounds by screening for small molecule inhibitors of Nsp3 papain-like protease” (Biochemical Journal, 2021):
Counter-ions that a name gives are not always drawn. Like-named read-outs stand apart in the source and are kept apart here.

Key:
[1] = molecular target: T1, SARS-CoV-2 PLpro (nsp3 1564–1878) (Severe acute respiratory syndrome coronavirus 2, UniProt P0DTD1); test: biochemical; design: FRET-quenched peptide (Pro3) cleavage by PLpro, 10 min pre-incubation, slope over 20 min, normalised to no-compound control; settings: high concentration screen, read-out: % of control remaining
[2] = molecular target: T1, SARS-CoV-2 PLpro (nsp3 1564–1878); test: biochemical; design: FRET-quenched peptide (Pro3) cleavage by PLpro, 10 min pre-incubation, slope over 20 min, normalised to no-compound control; settings: low concentration screen, read-out: % of control remaining

C[C@@H](O[C@H]1OCCN(Cc2nn(P(=O)(O)O)c(=O)[nH]2)[C@H]1c1ccc(F)cc1)c1cc(C(F)(F)F)cc(C(F)(F)F)c1 [Fosaprepitant (dimeglumine)]
remaining activity at 3.75 µM ([1]; Well no.=7483): 97.1% | remaining activity at 1.25 µM ([2]; Well no.=7483): 104%

O=C1CCCN1CC#CCN1CCCC1 [Oxotremorine]
remaining activity at 3.75 µM ([1]; Well no.=1673): 102% | remaining activity at 1.25 µM ([2]; Well no.=1673): 104%

NCCc1c[nH]cn1 [Histamine (phosphate)]
remaining activity at 3.75 µM ([1]; Well no.=6717): 91.6% | remaining activity at 1.25 µM ([2]; Well no.=6717): 95.8%

N[C@H](CO)C(=O)O [D-Serine]
remaining activity at 3.75 µM ([1]; Well no.=1362): 93.5% | remaining activity at 1.25 µM ([2]; Well no.=1362): 92.8%

NC(N)=NCCC[C@H](NC(=O)c1sccc1NS(=O)(=O)c1cccc2nsnc12)C(=O)O [EG00229]
remaining activity at 3.75 µM ([1]; Well no.=8174): 96.8% | remaining activity at 1.25 µM ([2]; Well no.=8174): 101%

NC1CCN(c2c(F)cc3c(=O)c(C(=O)O)cn(C4CC4)c3c2Cl)C1 (stereo not drawn) [Clinafloxacin]
remaining activity at 3.75 µM ([1]; Well no.=2271): 96.8% | remaining activity at 1.25 µM ([2]; Well no.=2271): 93.2%

NCC(O)(CS(=O)(=O)O)c1ccc(Cl)cc1 (stereo not drawn) [2-Hydroxysaclofen]
remaining activity at 3.75 µM ([1]; Well no.=355): 95.6% | remaining activity at 1.25 µM ([2]; Well no.=355): 97.9%

CCN(CCCl)Cc1ccccc1Br [DSP-4 hydrochloride]
remaining activity at 3.75 µM ([1]; Well no.=284): 98% | remaining activity at 1.25 µM ([2]; Well no.=284): 98.1%

Nc1nc(CC(=O)Nc2ccc(CCNC[C@H](O)c3ccccc3)cc2)cs1 [Mirabegron (YM178)]
remaining activity at 3.75 µM ([1]; Well no.=4652): 97.1% | remaining activity at 1.25 µM ([2]; Well no.=4652): 99.3%

O=C1N(c2ccccc2)c2ccccc2C1(Cc1ccncc1)Cc1ccncc1 [Linopirdine]
remaining activity at 3.75 µM ([1]; Well no.=822): 105% | remaining activity at 1.25 µM ([2]; Well no.=822): 104%

C#CCN(C)CCCOc1ccc(Cl)cc1Cl [Clorgyline hydrochloride]
remaining activity at 3.75 µM ([1]; Well no.=878): 102% | remaining activity at 1.25 µM ([2]; Well no.=878): 101%

Cc1nc2ccc(NC(=O)Nc3ccnc4cccnc34)cc2o1 [SB-334867 (free base)]
remaining activity at 3.75 µM ([1]; Well no.=6999): 104% | remaining activity at 1.25 µM ([2]; Well no.=6999): 101%

CC(=O)NCCOC(=O)[C@H](Oc1cccc(C(F)(F)F)c1)c1ccc(Cl)cc1 [2-(acetylamino)ethyl (2R)-(4-chlorophenyl)[3-(trifluoromethyl)phenoxy]ethanoate]
remaining activity at 3.75 µM ([1]; Well no.=6055): 97.1% | remaining activity at 1.25 µM ([2]; Well no.=6055): 100%

O=C1C(=O)N(Cc2ccc(-c3ccccc3)cc2)c2ccc(OC(F)(F)F)cc21 [VU 0365114]
remaining activity at 3.75 µM ([1]; Well no.=8036): 94.8% | remaining activity at 1.25 µM ([2]; Well no.=8036): 97.4%

COc1cc(Br)c(Nc2nc(-c3c(C)nc4ncccn34)cs2)c(Br)c1 [PTC-209]
remaining activity at 3.75 µM ([1]; Well no.=5643): 95% | remaining activity at 1.25 µM ([2]; Well no.=5643): 94.3%

[N-]=[N+]=N[C@]1(CO)O[C@@H](n2ccc(N)nc2=O)[C@H](O)[C@@H]1O [R-1479]
remaining activity at 3.75 µM ([1]; Well no.=7756): 99% | remaining activity at 1.25 µM ([2]; Well no.=7756): 97.4%

CC[C@@H](N)CNc1ccnc(-c2cc(-c3cnn(C)c3)ccc2O)n1 [CRT0066101 dihydrochloride]
remaining activity at 3.75 µM ([1]; Well no.=6498): 90.1% | remaining activity at 1.25 µM ([2]; Well no.=6498): 89.1%

CC(C)C[C@H](NC(=O)[C@@H](O)[C@H](N)Cc1ccccc1)C(=O)O [Bestatin hydrochloride]
remaining activity at 3.75 µM ([1]; Well no.=273): 97.1% | remaining activity at 1.25 µM ([2]; Well no.=273): 96.2%

CC(N)=O [Acetamide]
remaining activity at 3.75 µM ([1]; Well no.=7): 101% | remaining activity at 1.25 µM ([2]; Well no.=7): 101%

NCCCCN [Putrescine dihydrochloride]
remaining activity at 3.75 µM ([1]; Well no.=1205): 102% | remaining activity at 1.25 µM ([2]; Well no.=1205): 103%

O=S(=O)(c1cccc2cnccc12)N1CCCNCC1 [Fasudil hydrochloride - 1-(5-Isoquinolinesulfonyl)homopiperazine hydrochloride]
remaining activity at 3.75 µM ([1]; Well no.=2338): 99% | remaining activity at 1.25 µM ([2]; Well no.=2338): 97.4%

CCN(CC)CCN(Cc1ccc(-c2ccc(C(F)(F)F)cc2)cc1)C(=O)Cn1c(SCc2ccc(F)cc2)nc(=O)c2c1CCC2 [Darapladib (SB-480848)]
remaining activity at 3.75 µM ([1]; Well no.=8576): 98.6% | remaining activity at 1.25 µM ([2]; Well no.=8576): 101%

CCc1nn(CCCN2CCN(c3cccc(Cl)c3)CC2)c(=O)n1CCOc1ccccc1 [Nefazodone]
remaining activity at 3.75 µM ([1]; Well no.=2009): 101% | remaining activity at 1.25 µM ([2]; Well no.=2009): 101%

N#Cc1c(NC(=O)c2cccc3ccccc23)sc2c1CCCC2 [JNK Inhibitor IX]
remaining activity at 3.75 µM ([1]; Well no.=2518): 103% | remaining activity at 1.25 µM ([2]; Well no.=2518): 99.9%

CCN(CC)CCOC(=O)c1ccc(N)cc1 [Procaine hydrochloride]
remaining activity at 3.75 µM ([1]; Well no.=1165): 105% | remaining activity at 1.25 µM ([2]; Well no.=1165): 103%

CCCCC1C(=O)N(c2ccccc2)N(c2ccccc2)C1=O [Phenylbutazone]
remaining activity at 3.75 µM ([1]; Well no.=1303): 99.3% | remaining activity at 3.75 µM ([1]; Well no.=2105): 101% | remaining activity at 1.25 µM ([2]; Well no.=1303): 102% | remaining activity at 1.25 µM ([2]; Well no.=2105): 101%

N#Cc1ccc2[nH]cc(CCCCN3CCN(c4ccc5oc(C(N)=O)cc5c4)CC3)c2c1 [Vilazodone]
remaining activity at 3.75 µM ([1]; Well no.=6477): 89.2% | remaining activity at 1.25 µM ([2]; Well no.=6477): 90.6%

CC[C@H](C(=O)N1CCCC[C@H]1C(=O)O[C@H](CCc1ccc(OC)c(OC)c1)c1cccc(OCC(=O)NCCNC(=O)COc2cccc([C@@H](CCc3ccc(OC)c(OC)c3)OC(=O)[C@@H]3CCCCN3C(=O)[C@@H](CC)c3cc(OC)c(OC)c(OC)c3)c2)c1)c1cc(OC)c(OC)c(OC)c1 [Rimiducid]
remaining activity at 3.75 µM ([1]; Well no.=7156): 91.8% | remaining activity at 3.75 µM ([1]; Well no.=8596): 89.6% | remaining activity at 1.25 µM ([2]; Well no.=7156): 94.6% | remaining activity at 1.25 µM ([2]; Well no.=8596): 96.4%

C=CCN1CC[C@]23c4c5ccc(O)c4O[C@H]2C(=O)CC[C@@]3(O)[C@H]1C5 [Naloxone]
remaining activity at 3.75 µM ([1]; Well no.=2060): 103% | remaining activity at 1.25 µM ([2]; Well no.=2060): 104%

CC(C)(CCCCCC(O)CCCCCC(C)(C)C(=O)O)C(=O)O [ETC-1002]
remaining activity at 3.75 µM ([1]; Well no.=8628): 98.8% | remaining activity at 1.25 µM ([2]; Well no.=8628): 101%

COc1ccc(-c2cc(=O)c3c(O)c(OC)c(OC)cc3o2)cc1O [5-hydroxy-2-(3-hydroxy-4-methoxyphenyl)-6,7-dimethoxy-4H-chromen-4-one]
remaining activity at 3.75 µM ([1]; Well no.=5983): 95.3% | remaining activity at 1.25 µM ([2]; Well no.=5983): 98.6%

CCCOC(=O)c1ccc(O)cc1 [Propylparaben]
remaining activity at 3.75 µM ([1]; Well no.=7453): 101% | remaining activity at 1.25 µM ([2]; Well no.=7453): 105%

C[N+]1(C)CCC(=C(c2ccccc2)c2ccccc2)CC1 [Diphemanil Methylsulfate]
remaining activity at 3.75 µM ([1]; Well no.=5118): 108% | remaining activity at 1.25 µM ([2]; Well no.=5118): 109%

CN(C)CC(C)(C)CNc1nn2c(-c3ccccc3)nnc2cc1C1CCC1 [Akt-I-1]
remaining activity at 3.75 µM ([1]; Well no.=2707): 106% | remaining activity at 1.25 µM ([2]; Well no.=2707): 107%
